Legend:
Assay in all cases: relative viability (nuclei count vs DMSO), 5 days (fraction); higher = more cells survive
[1] = compound: CC1=CC(=NN1)NC2=CC(=NC(=N2)/C=C/C3=CC=CC=C3)N4CCN(CC4)C + COc1cc2c(Oc3ccc(NC(=O)C4(C(=O)Nc5ccc(F)cc5)CC4)cc3F)ccnc2cc1OCCCN1CCOCC1 [Foretinib] (partner 0.25 µM)
Summary of the method: (§1)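 Lung cancer cell lines were seeded in 1536-well plates and dosed by pin tool the next day, with either a single drug or a fixed anchor-drug dose combined with five library-drug doses (not always all listed) spaced in √10 steps. Five days later, one step fixed the cells and stained their nuclei (final 0.05% Triton X-100, 1% formaldehyde, 1 ug/ml Hoechst), and nuclei were counted on 4× images. Relative viability is the nuclei count in treated wells divided by the count in vehicle wells, and each value is the median of duplicate plates.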

[2] = compound: CC1=CC(=NN1)NC2=CC(=NC(=N2)/C=C/C3=CC=CC=C3)N4CCN(CC4)C + NC(=O)Nc1cc(-c2cccc(F)c2)sc1C(=O)N[C@H]1CCCNC1 [AZD7762] (partner 0.2 µM)
Summary of the method: as §1

Obatoclax + OSI-027 = compound: COC1=CC(c2cc3ccccc3[nH]2)=N/C1=C\c1[nH]c(C)cc1C [Obatoclax] + COc1cccc2cc(-c3nc([C@H]4CC[C@H](C(=O)O)CC4)n4ncnc(N)c34)[nH]c12 [OSI-027] (partner 0.5 µM)
Summary of the method: as §1

Obatoclax + Crizotinib = compound: COC1=CC(c2cc3ccccc3[nH]2)=N/C1=C\c1[nH]c(C)cc1C [Obatoclax] + C[C@@H](Oc1cc(-c2cnn(C3CCNCC3)c2)cnc1N)c1c(Cl)ccc(F)c1Cl [Crizotinib] (partner 1 µM)
Summary of the method: as §1

LU99A gave a relative viability ([1]; first compound 0.08 µM) of 0.8, a relative viability ([1]; first compound 0.253 µM) of 0.732 and a relative viability ([1]; first compound 0.8 µM) of 0.735. The relative viability ([1]; first compound 2.53 µM) was 0.363, the relative viability ([1]; first compound 8 µM) was 0.156 and the relative viability ([2]; first compound 0.08 µM) was 0.298. For the same cell line, the relative viability ([2]; first compound 0.253 µM) was 0.376, the relative viability ([2]; first compound 0.8 µM) was 0.252 and the relative viability ([2]; first compound 2.53 µM) was 0.14. The relative viability ([2]; first compound 8 µM) was 0.0858, the relative viability (Obatoclax + OSI-027; first compound 0.01 µM) was 0.291 and the relative viability (Obatoclax + OSI-027; first compound 0.03162 µM) was 0.282. It also gave a relative viability (Obatoclax + OSI-027; first compound 0.1 µM) of 0.267, a relative viability (Obatoclax + OSI-027; first compound 0.3162 µM) of 0.312 and a relative viability (Obatoclax + OSI-027; first compound 1 µM) of 0.298. For the same cell line, the relative viability (Obatoclax + Crizotinib; first compound 0.01 µM) was 0.614, the relative viability (Obatoclax + Crizotinib; first compound 0.03162 µM) was 0.498 and the relative viability (Obatoclax + Crizotinib; first compound 0.1 µM) was 0.569. The relative viability (Obatoclax + Crizotinib; first compound 0.3162 µM) was 0.236 and the relative viability (Obatoclax + Crizotinib; first compound 1 µM) was 0.233.
LXF-289 gave a relative viability ([1]; first compound 0.08 µM) of 0.996, a relative viability ([1]; first compound 0.253 µM) of 1.02 and a relative viability ([1]; first compound 0.8 µM) of 0.873. For the same cell line, the relative viability ([1]; first compound 2.53 µM) was 0.812, the relative viability ([1]; first compound 8 µM) was 0.194 and the relative viability ([2]; first compound 0.08 µM) was 1.06. For the same cell line, the relative viability ([2]; first compound 0.253 µM) was 1.11, the relative viability ([2]; first compound 0.8 µM) was 1.04 and the relative viability ([2]; first compound 2.53 µM) was 0.685. It also gave a relative viability ([2]; first compound 8 µM) of 0.102, a relative viability (Obatoclax + OSI-027; first compound 0.01 µM) of 0.78 and a relative viability (Obatoclax + OSI-027; first compound 0.03162 µM) of 0.77. It also gave a relative viability (Obatoclax + OSI-027; first compound 0.1 µM) of 0.68, a relative viability (Obatoclax + OSI-027; first compound 0.3162 µM) of 0.765 and a relative viability (Obatoclax + OSI-027; first compound 1 µM) of 0.691. For the same cell line, the relative viability (Obatoclax + Crizotinib; first compound 0.01 µM) was 0.796, the relative viability (Obatoclax + Crizotinib; first compound 0.03162 µM) was 0.8 and the relative viability (Obatoclax + Crizotinib; first compound 0.1 µM) was 0.83. For the same cell line, the relative viability (Obatoclax + Crizotinib; first compound 0.3162 µM) was 0.822 and the relative viability (Obatoclax + Crizotinib; first compound 1 µM) was 0.679.
NCI-H23 was tested, and the relative viability ([1]; first compound 0.08 µM) was 0.699, the relative viability ([1]; first compound 0.253 µM) was 0.987 and the relative viability ([1]; first compound 0.8 µM) was 0.712. The relative viability ([1]; first compound 2.53 µM) was 0.256, the relative viability ([1]; first compound 8 µM) was 0.147 and the relative viability ([2]; first compound 0.08 µM) was 0.246. It also gave a relative viability ([2]; first compound 0.253 µM) of 0.186, a relative viability ([2]; first compound 0.8 µM) of 0.23 and a relative viability ([2]; first compound 2.53 µM) of 0.094. The relative viability ([2]; first compound 8 µM) was 0.101, the relative viability (Obatoclax + OSI-027; first compound 0.01 µM) was 0.632 and the relative viability (Obatoclax + OSI-027; first compound 0.03162 µM) was 0.62. It also gave a relative viability (Obatoclax + OSI-027; first compound 0.1 µM) of 0.626, a relative viability (Obatoclax + OSI-027; first compound 0.3162 µM) of 0.503 and a relative viability (Obatoclax + OSI-027; first compound 1 µM) of 0.243. It also gave a relative viability (Obatoclax + Crizotinib; first compound 0.01 µM) of 0.555, a relative viability (Obatoclax + Crizotinib; first compound 0.03162 µM) of 0.507 and a relative viability (Obatoclax + Crizotinib; first compound 0.1 µM) of 0.469. For the same cell line, the relative viability (Obatoclax + Crizotinib; first compound 0.3162 µM) was 0.527 and the relative viability (Obatoclax + Crizotinib; first compound 1 µM) was 0.282.
NCI-H322M gave a relative viability ([1]; first compound 0.08 µM) of 0.947, a relative viability ([1]; first compound 0.253 µM) of 1.03 and a relative viability ([1]; first compound 0.8 µM) of 0.934. For the same cell line, the relative viability ([1]; first compound 2.53 µM) was 0.363, the relative viability ([1]; first compound 8 µM) was 0.239 and the relative viability ([2]; first compound 0.08 µM) was 0.555. The relative viability ([2]; first compound 0.253 µM) was 0.6, the relative viability ([2]; first compound 0.8 µM) was 0.615 and the relative viability ([2]; first compound 2.53 µM) was 0.403. The relative viability ([2]; first compound 8 µM) was 0.302, the relative viability (Obatoclax + OSI-027; first compound 0.01 µM) was 0.531 and the relative viability (Obatoclax + OSI-027; first compound 0.03162 µM) was 0.338. It also gave a relative viability (Obatoclax + OSI-027; first compound 0.3162 µM) of 0.462, a relative viability (Obatoclax + OSI-027; first compound 1 µM) of 0.386 and a relative viability (Obatoclax + Crizotinib; first compound 0.01 µM) of 0.822. It also gave a relative viability (Obatoclax + Crizotinib; first compound 0.03162 µM) of 0.932, a relative viability (Obatoclax + Crizotinib; first compound 0.1 µM) of 0.845 and a relative viability (Obatoclax + Crizotinib; first compound 0.3162 µM) of 1.01. The relative viability (Obatoclax + Crizotinib; first compound 1 µM) was 0.96.
NCI-H358 was tested, and the relative viability ([1]; first compound 0.08 µM) was 0.705, the relative viability ([1]; first compound 0.253 µM) was 0.886 and the relative viability ([1]; first compound 0.8 µM) was 0.307. For the same cell line, the relative viability ([1]; first compound 2.53 µM) was 0.145, the relative viability ([1]; first compound 8 µM) was 0.0554 and the relative viability ([2]; first compound 0.08 µM) was 0.574. The relative viability ([2]; first compound 0.253 µM) was 0.528, the relative viability ([2]; first compound 0.8 µM) was 0.424 and the relative viability ([2]; first compound 2.53 µM) was 0.195. For the same cell line, the relative viability ([2]; first compound 8 µM) was 0.154, the relative viability (Obatoclax + OSI-027; first compound 0.01 µM) was 0.736 and the relative viability (Obatoclax + OSI-027; first compound 0.03162 µM) was 0.871. The relative viability (Obatoclax + OSI-027; first compound 0.1 µM) was 0.903, the relative viability (Obatoclax + OSI-027; first compound 0.3162 µM) was 0.379 and the relative viability (Obatoclax + OSI-027; first compound 1 µM) was 0.199. For the same cell line, the relative viability (Obatoclax + Crizotinib; first compound 0.01 µM) was 0.46, the relative viability (Obatoclax + Crizotinib; first compound 0.03162 µM) was 0.57 and the relative viability (Obatoclax + Crizotinib; first compound 0.1 µM) was 0.592. For the same cell line, the relative viability (Obatoclax + Crizotinib; first compound 0.3162 µM) was 0.374 and the relative viability (Obatoclax + Crizotinib; first compound 1 µM) was 0.352.
With NCI-H441 the relative viability ([1]; first compound 0.08 µM) was 1.16, the relative viability ([1]; first compound 0.253 µM) was 0.649 and the relative viability ([1]; first compound 0.8 µM) was 1.18. It also gave a relative viability ([1]; first compound 2.53 µM) of 0.384, a relative viability ([1]; first compound 8 µM) of 0.177 and a relative viability ([2]; first compound 0.08 µM) of 1.17. For the same cell line, the relative viability ([2]; first compound 0.253 µM) was 1.06, the relative viability ([2]; first compound 0.8 µM) was 1.1 and the relative viability ([2]; first compound 2.53 µM) was 0.728. For the same cell line, the relative viability ([2]; first compound 8 µM) was 0.152, the relative viability (Obatoclax + OSI-027; first compound 0.01 µM) was 0.772 and the relative viability (Obatoclax + OSI-027; first compound 0.03162 µM) was 0.502. For the same cell line, the relative viability (Obatoclax + OSI-027; first compound 0.1 µM) was 0.704, the relative viability (Obatoclax + OSI-027; first compound 0.3162 µM) was 0.354 and the relative viability (Obatoclax + OSI-027; first compound 1 µM) was 0.271. For the same cell line, the relative viability (Obatoclax + Crizotinib; first compound 0.01 µM) was 0.676, the relative viability (Obatoclax + Crizotinib; first compound 0.03162 µM) was 0.742 and the relative viability (Obatoclax + Crizotinib; first compound 0.1 µM) was 0.724. For the same cell line, the relative viability (Obatoclax + Crizotinib; first compound 0.3162 µM) was 0.604 and the relative viability (Obatoclax + Crizotinib; first compound 1 µM) was 0.549.
Cell Line NCI-H460 has a relative viability ([1]; first compound 0.08 µM) of 1, a relative viability ([1]; first compound 0.253 µM) of 1.1 and a relative viability ([1]; first compound 0.8 µM) of 1.04. For the same cell line, the relative viability ([1]; first compound 2.53 µM) was 0.477, the relative viability ([1]; first compound 8 µM) was 0.0228 and the relative viability ([2]; first compound 0.08 µM) was 0.6. The relative viability ([2]; first compound 0.253 µM) was 0.72, the relative viability ([2]; first compound 0.8 µM) was 0.681 and the relative viability ([2]; first compound 2.53 µM) was 0.372. The relative viability ([2]; first compound 8 µM) was 0.0422, the relative viability (Obatoclax + OSI-027; first compound 0.01 µM) was 0.697 and the relative viability (Obatoclax + OSI-027; first compound 0.03162 µM) was 0.703. It also gave a relative viability (Obatoclax + OSI-027; first compound 0.1 µM) of 0.635, a relative viability (Obatoclax + OSI-027; first compound 0.3162 µM) of 0.0709 and a relative viability (Obatoclax + OSI-027; first compound 1 µM) of 0.0443. The relative viability (Obatoclax + Crizotinib; first compound 0.01 µM) was 0.727, the relative viability (Obatoclax + Crizotinib; first compound 0.03162 µM) was 0.716 and the relative viability (Obatoclax + Crizotinib; first compound 0.1 µM) was 0.605. It also gave a relative viability (Obatoclax + Crizotinib; first compound 0.3162 µM) of 0.244 and a relative viability (Obatoclax + Crizotinib; first compound 1 µM) of 0.0446.
NCI-H596 gave a relative viability ([1]; first compound 0.08 µM) of 0.78, a relative viability ([1]; first compound 0.253 µM) of 0.937 and a relative viability ([1]; first compound 0.8 µM) of 0.633. For the same cell line, the relative viability ([1]; first compound 2.53 µM) was 0.654, the relative viability ([1]; first compound 8 µM) was 0.165 and the relative viability ([2]; first compound 0.08 µM) was 1.07. For the same cell line, the relative viability ([2]; first compound 0.253 µM) was 1.14, the relative viability ([2]; first compound 0.8 µM) was 1.04 and the relative viability ([2]; first compound 2.53 µM) was 0.583. For the same cell line, the relative viability ([2]; first compound 8 µM) was 0.279, the relative viability (Obatoclax + OSI-027; first compound 0.01 µM) was 0.837 and the relative viability (Obatoclax + OSI-027; first compound 0.03162 µM) was 0.602. The relative viability (Obatoclax + OSI-027; first compound 0.1 µM) was 0.65, the relative viability (Obatoclax + OSI-027; first compound 0.3162 µM) was 0.504 and the relative viability (Obatoclax + OSI-027; first compound 1 µM) was 0.425. For the same cell line, the relative viability (Obatoclax + Crizotinib; first compound 0.01 µM) was 0.987, the relative viability (Obatoclax + Crizotinib; first compound 0.03162 µM) was 0.898 and the relative viability (Obatoclax + Crizotinib; first compound 0.1 µM) was 0.946. The relative viability (Obatoclax + Crizotinib; first compound 0.3162 µM) was 0.655 and the relative viability (Obatoclax + Crizotinib; first compound 1 µM) was 0.565.
